In patent US12318403B2, “2′3′-cyclic dinucleotides and prodrugs thereof” (INSTITUTE OF ORGANIC CHEMISTRY AND BIOCHEMISTRY ASCR, V.V.I., priority 2019, dated 2025):
Where two headings read alike, the source gives them in different places.

Experiments:
[1] = target: T1, human WT STING (Homo sapiens, UniProt Q86WV6, H232R); experiment: Differential Scanning Fluorimetry with WT STING; format: binding; settings: thermal shift vs STING apoprotein; 150 μM CDN; truncated WT STING (residues 140-343)
T1 construct: truncated human WT STING or AQ STING (amino acid residues 140-343); 8xHis (N, cleaved yes); SUMO (N, cleaved yes); made in house; host or cells: E. coli Rosetta-gami B (DE3)

[2] = target: T2, AQ human STING (G230A-R293Q) (Homo sapiens, UniProt Q86WV6, G230A/H232R/R293Q); experiment: Differential Scanning Fluorimetry with AQ STING; format: binding; settings: thermal shift vs STING apoprotein; 150 μM CDN; truncated AQ STING (residues 140-343)
T2 construct: truncated human WT STING or AQ STING (amino acid residues 140-343); 8xHis (N, cleaved yes); SUMO (N, cleaved yes); made in house; host or cells: E. coli Rosetta-gami B (DE3)

[3] = target: T3, human wild type STING (WT STING) (Homo sapiens, UniProt Q86WV6, H232R); experiment: Digitonin assay using 293T wtSTING-FL reporter cells; format: cell-based; settings: 293T wtSTING-FL cells; compounds in Digitonin buffer 30 minutes, then 5 hours in medium; ISRE firefly luciferase
[4] = target: T3, human wild type STING (WT STING); experiment: 293T WT STING standard reporter assay; format: cell-based; settings: 293T wtSTING-FL cells; standard reporter assay without digitonin; 7 hours; ISRE firefly luciferase; read-out: 293T WT STING EC50
[5] = test system: peripheral blood mononuclear cell (PBMC); experiment: Peripheral blood mononuclear cell assay; settings: average of one to four donors
[6] = PBMC, read-out: PBMC EC50 IFN-α, compounds 1h, washed, 15 hour incubation, interferon-alpha level in medium
[7] = PBMC, read-out: PBMC EC50 TNF-α, compounds 1h, washed, 15 hour incubation, tumor necrosis factor-alpha level in medium
[8] = read-out: PBMC EC50 IFN-γ, compounds 1h, washed, 15 hour incubation, interferon-gamma level in medium
[9] = read-out: PBMC EC50 IFN-α, compounds 1h, washed, 15 hour incubation, interferon-alpha level in medium
[10] = read-out: PBMC EC50 TNF-α, compounds 1h, washed, 15 hour incubation, tumor necrosis factor-alpha level in medium
[11] = PBMC, read-out: PBMC EC50 IFN-γ, compounds 1h, washed, 15 hour incubation, interferon-gamma level in medium

T3 sequence (Q86WV6 whole entry H232R): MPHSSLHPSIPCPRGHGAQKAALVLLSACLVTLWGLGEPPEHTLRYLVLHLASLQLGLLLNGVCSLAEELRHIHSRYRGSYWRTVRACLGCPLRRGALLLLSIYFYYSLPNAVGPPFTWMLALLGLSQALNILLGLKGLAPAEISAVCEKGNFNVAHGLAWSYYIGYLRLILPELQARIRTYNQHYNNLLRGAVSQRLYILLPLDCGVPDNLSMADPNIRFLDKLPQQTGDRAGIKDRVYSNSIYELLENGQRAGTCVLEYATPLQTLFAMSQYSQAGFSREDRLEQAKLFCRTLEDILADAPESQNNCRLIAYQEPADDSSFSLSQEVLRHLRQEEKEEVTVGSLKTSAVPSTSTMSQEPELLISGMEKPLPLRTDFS
T1 sequence (Q86WV6 140-343 H232R): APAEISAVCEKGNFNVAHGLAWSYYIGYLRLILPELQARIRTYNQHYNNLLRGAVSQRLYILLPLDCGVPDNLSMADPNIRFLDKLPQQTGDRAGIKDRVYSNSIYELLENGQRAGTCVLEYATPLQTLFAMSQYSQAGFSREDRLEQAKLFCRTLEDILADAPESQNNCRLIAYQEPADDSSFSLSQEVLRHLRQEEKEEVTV
T2 sequence (Q86WV6 140-343 G230A/H232R/R293Q): as the sequence (Q86WV6 140-343 H232R) above, with G91A, R154Q counted along it

| SMILES | DSF ΔTm WT STING [1] [°C] | DSF ΔTm AQ STING [2] [°C] | EC50 [3] [µM] | EC50 [4] [µM] | EC50 [5, 6] [µM] | EC50 [5, 7] [µM] | EC50 [5, 8] [µM] | EC50 [5, 9] [µM] | EC50 [5, 10] [µM] | EC50 [5, 11] [µM] |
| --- | --- | --- | --- | --- | --- | --- | --- | --- | --- | --- |
| Nc1nc2c(ncn2[C@@H]2O[C@@H]3COP(=O)(O)CO[C@H]4[C@@H](F)[C@H](n5cnc6c(N)ncnc65)O[C@@H]4COP(=O)(S)O[C@@H]2[C@@H]3F)c(=O)[nH]1 (single isomer, unassigned) [Compound 11a] | 17.3 | 23.1 | 0.03 | 2.5 | 286 | 180 | 152 |  |  |  |
| Nc1nc2c(ncn2[C@@H]2O[C@@H]3COP(=O)(O)CO[C@H]4[C@@H](F)[C@H](n5cnc6c(N)ncnc65)O[C@@H]4COP(=O)(S)O[C@@H]2[C@@H]3F)c(=O)[nH]1 (single isomer, unassigned) [Compound 11b] | 22.4 | 29.2 | 0.01 | 1.9 |  |  | 56 | 227 | 171 |  |
| Nc1ncnc2c1ncn2[C@@H]1O[C@@H]2COP(=O)(S)O[C@@H]3[C@H](F)[C@@H](COP(=O)(O)CO[C@H]2[C@H]1F)O[C@H]3n1cnc2c(=O)[nH]cnc21 (single isomer, unassigned) [Compound 13a] | 18.3 | 21.8 | 0.009 | 1.3 |  |  |  |  |  |  |
| Nc1ncnc2c1ncn2[C@@H]1O[C@@H]2COP(=O)(S)O[C@@H]3[C@H](F)[C@@H](COP(=O)(O)CO[C@H]2[C@H]1F)O[C@H]3n1cnc2c(=O)[nH]cnc21 (single isomer, unassigned) [Compound 13b] | 20.9 | 26.0 | 0.01 | 1.1 | 150 | 65 |  |  |  | 70 |
| Nc1nc2c(ncn2[C@@H]2O[C@@H]3COP(=O)(S)CO[C@H]4[C@@H](F)[C@H](n5cnc6c(N)ncnc65)O[C@@H]4COP(=O)(O)O[C@@H]2[C@@H]3F)c(=O)[nH]1 (single isomer, unassigned) [Compound 15a] | 13.8 | 19.7 | 0.02 | 2.3 |  |  |  |  |  |  |
| Nc1nc2c(ncn2[C@@H]2O[C@@H]3COP(=O)(S)CO[C@H]4[C@@H](F)[C@H](n5cnc6c(N)ncnc65)O[C@@H]4COP(=O)(O)O[C@@H]2[C@@H]3F)c(=O)[nH]1 (single isomer, unassigned) [Compound 15b] | 19.4 | 27.0 |  | 4.7 |  |  |  |  |  |  |
| Nc1nc2c(ncn2[C@@H]2O[C@@H]3COP(=O)(S)CO[C@H]4[C@@H](F)[C@H](n5cnc6c(N)ncnc65)O[C@@H]4COP(=O)(S)O[C@@H]2[C@@H]3F)c(=O)[nH]1 (single isomer, unassigned) [Compound 17a] | 8.7 | 14.3 | 0.54 | 10.2 |  |  |  |  |  |  |
| Nc1nc2c(ncn2[C@@H]2O[C@@H]3COP(=O)(S)CO[C@H]4[C@@H](F)[C@H](n5cnc6c(N)ncnc65)O[C@@H]4COP(=O)(S)O[C@@H]2[C@@H]3F)c(=O)[nH]1 (single isomer, unassigned) [Compound 17c] | 18.6 | 25.4 | 0.007 | 0.14 |  |  | 42 | 107 | 84 |  |
| Nc1nc2c(ncn2[C@@H]2O[C@@H]3COP(=O)(O)O[C@@H]4[C@H](O)[C@@H](COP(=O)(O)O[C@@H]2[C@@H]3O)O[C@H]4n2cnc3c(N)ncnc32)c(=O)[nH]1 [2′2′-cGAMP, reference compound] |  | 19.4 | 0.03 | 10.2 |  |  |  |  |  |  |
| Nc1ncnc2c1ncn2[C@@H]1O[C@@H]2COP(=O)(O)O[C@H]3[C@@H](O)[C@H](n4cnc5c(N)ncnc54)O[C@@H]3COP(=O)(O)O[C@H]2[C@H]1O [3′3′-c-di-AMP, reference compound] | 2.5 | 9.0 | 0.3 | 202 |  |  |  |  |  |  |
| Nc1ncnc2c1ncn2[C@@H]1O[C@@H]2COP(=O)(O)O[C@@H]3[C@H](F)[C@@H](COP(=O)(O)CO[C@H]2[C@H]1F)O[C@H]3n1cnc2c(=O)[nH]cnc21 [Compound 22] |  |  |  | 8.1 | 160 | 90 |  |  |  | 125 |
| Nc1ncnc2c1ncn2[C@@H]1O[C@@H]2COP(=O)(O)O[C@@H]3[C@H](F)[C@@H](COP(=O)(O)CO[C@H]2[C@H]1F)O[C@H]3n1cnc2c(N)ncnc21 [Compound 28, (1S,6R,8R,9R,10R,16R,18R,19R)-8,18-bis(6-amino-9H-purin-9-yl)-9,19-difluoro-3,13-dihydroxy-2,4,7,11,14,17-hexaoxa-3λ^5,13λ^5-diphosphatricyclo[14.2.1.0^6,^10]nonadecane-3,13-dione] | 9.3 | 13.3 |  | 6.2 |  |  |  |  |  |  |

Continued, in another order:

| DSF ΔTm WT STING [1] [°C] | DSF ΔTm AQ STING [2] [°C] | EC50 [3] [µM] | EC50 [4] [µM] | SMILES | EC50 [5, 6] [µM] | EC50 [5, 7] [µM] | EC50 [5, 8] [µM] | EC50 [5, 9] [µM] | EC50 [5, 10] [µM] | EC50 [5, 11] [µM] |
| --- | --- | --- | --- | --- | --- | --- | --- | --- | --- | --- |
|  |  | 11.2 |  | Nc1ncnc2c1ncn2[C@@H]1O[C@@H]2COP(=O)(S)O[C@@H]3[C@H](F)[C@@H](COP(=O)(S)CO[C@H]2[C@H]1F)O[C@H]3n1cnc2c(N)ncnc21 (single isomer, unassigned) [Compound 30a] |  |  |  |  |  |  |
|  |  | 0.4 |  | Nc1ncnc2c1ncn2[C@@H]1O[C@@H]2COP(=O)(S)O[C@@H]3[C@H](F)[C@@H](COP(=O)(S)CO[C@H]2[C@H]1F)O[C@H]3n1cnc2c(N)ncnc21 (single isomer, unassigned) [Compound 30b] |  |  |  |  |  |  |
|  |  | 0.6 |  | Nc1ncnc2c1ncn2[C@@H]1O[C@@H]2COP(=O)(S)O[C@@H]3[C@H](F)[C@@H](COP(=O)(S)CO[C@H]2[C@H]1F)O[C@H]3n1cnc2c(N)ncnc21 (single isomer, unassigned) [Compound 30c] |  |  |  |  |  |  |
|  |  |  | 0.02 | CCCCCCCCCCCC(=O)OCOP1(=O)CO[C@H]2[C@@H](F)[C@H](n3cnc4c(N)ncnc43)O[C@@H]2COP(=O)(OCOC(=O)CCCCCCCCCCC)O[C@@H]2[C@H](F)[C@@H](CO1)O[C@H]2n1cnc2c(=O)[nH]cnc21 (single isomer, unassigned) [Compound 79b] |  |  | 0.01 | 0.2 | 0.2 |  |
|  |  |  | 0.003 | CCCCCCCCCCCC(=O)OCOP1(=O)CO[C@H]2[C@@H](F)[C@H](n3cnc4c(N)ncnc43)O[C@@H]2COP(=O)(OCOC(=O)CCCCCCCCCCC)O[C@@H]2[C@H](F)[C@@H](CO1)O[C@H]2n1cnc2c(=O)[nH]cnc21 (single isomer, unassigned) [Compound 79c] |  |  | 0.05 | 0.1 | 0.09 |  |
|  |  |  | 4.2 | CC(C)OC(=O)OCOP1(=O)CO[C@H]2[C@@H](F)[C@H](n3cnc4c(N)ncnc43)O[C@@H]2COP(=O)(OCOC(=O)OC(C)C)O[C@@H]2[C@H](F)[C@@H](CO1)O[C@H]2n1cnc2c(N)ncnc21 (single isomer, unassigned) [Compound 80a] | > 5 | > 5 |  |  |  | > 5 |
|  |  |  | 1.1 | CC(C)OC(=O)OCOP1(=O)CO[C@H]2[C@@H](F)[C@H](n3cnc4c(N)ncnc43)O[C@@H]2COP(=O)(OCOC(=O)OC(C)C)O[C@@H]2[C@H](F)[C@@H](CO1)O[C@H]2n1cnc2c(N)ncnc21 (single isomer, unassigned) [Compound 80c] |  |  | > 5 | > 5 | > 5 |  |
|  |  |  | 0.05 | CC(C)(C)C(=O)OCOP1(=O)CO[C@H]2[C@@H](F)[C@H](n3cnc4c(N)ncnc43)O[C@@H]2COP(=O)(OCOC(=O)C(C)(C)C)O[C@@H]2[C@H](F)[C@@H](CO1)O[C@H]2n1cnc2c(N)ncnc21 (single isomer, unassigned) [Compound 81a] | 1.4 | 1.6 |  |  |  | 1.7 |
|  |  |  | 0.05 | CC(C)(C)C(=O)OCOP1(=O)CO[C@H]2[C@@H](F)[C@H](n3cnc4c(N)ncnc43)O[C@@H]2COP(=O)(OCOC(=O)C(C)(C)C)O[C@@H]2[C@H](F)[C@@H](CO1)O[C@H]2n1cnc2c(N)ncnc21 (single isomer, unassigned) [Compound 81b] |  |  | 1.4 | 1 | 1.3 |  |
|  |  |  | 0.9 | CC(C)OC(=O)OCOP1(=O)CO[C@H]2[C@@H](F)[C@H](n3cnc4c(N)ncnc43)O[C@@H]2COP(=O)(OCOC(=O)OC(C)C)O[C@@H]2[C@H](F)[C@@H](CO1)O[C@H]2n1cnc2c(N)ncnc21 (stereo partly drawn) [Compound 80b, {[(1S,6R,8R,9R,10R,16R,18R,19R)-8,18-bis(6-amino-9H-purin-9-yl)-9,19-difluoro-3,13-dioxo-13-({[(propan-2-yloxy)carbonyl]oxy}methoxy)-2,4,7,11,14,17-hexaoxa-3λ^5,13λ^5-diphosphatricyclo[14.2.1.0^6,10]nonadecan-3-yl]oxy}methyl propan-2-yl carbonate] | 1.3 | 1.5 |  |  |  | 1.6 |
